Test [1] addresses T1, Thromboxane A2 (TXA2) synthetase (Equus caballus, UniProt A0A9L0T8T9).
T1 sequence (A0A9L0T8T9 2-534): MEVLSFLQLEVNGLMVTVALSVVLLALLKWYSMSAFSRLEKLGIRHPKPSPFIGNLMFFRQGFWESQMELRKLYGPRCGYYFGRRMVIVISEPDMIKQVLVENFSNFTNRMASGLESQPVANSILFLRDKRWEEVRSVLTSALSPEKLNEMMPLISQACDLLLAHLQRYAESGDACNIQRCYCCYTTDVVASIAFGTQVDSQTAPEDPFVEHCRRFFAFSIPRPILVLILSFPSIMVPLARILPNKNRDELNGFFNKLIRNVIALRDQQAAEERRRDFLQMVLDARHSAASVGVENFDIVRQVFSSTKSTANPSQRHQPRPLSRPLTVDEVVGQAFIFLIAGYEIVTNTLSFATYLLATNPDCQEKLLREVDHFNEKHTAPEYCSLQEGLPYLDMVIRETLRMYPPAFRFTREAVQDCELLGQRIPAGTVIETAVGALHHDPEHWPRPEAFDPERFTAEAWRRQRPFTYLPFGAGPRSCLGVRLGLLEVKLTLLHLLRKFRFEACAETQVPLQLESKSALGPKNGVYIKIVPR
Description: Inhibition of Thromboxane A2 (TXA2) synthetase (horse platelet microsome). The class given is biochemical. The settings on record: read-out: Inhibition of Thromboxane A2 (TXA2) synthetase; for inhibition at 1 µM: 10^-6 M; for inhibition at 0.1 µM: 10^-7 M. How it is done: Inhibition of Thromboxane A2 (TXA2) synthetase
(§1) As a preparation of TXA2 synthetase, horse platelet microsome treated with indomethacin (indomethacin-treated horse platelet microsome: IPM) according to the method of Needleman et al. (Science 193 163, 1979) was used. To 60 μl of the solution of IPM in 50 mM Tris buffer(pH 7.5) (containing 140 μg on the protein basis), 60μof a solution containing a drug at a variable concentration was added and kept still at room temperature for 5 minutes. One hundred μl of this mixture was taken, to which 20 μl of a buffer containing 30 ng cf prostaglandin H2 (PGH2) with ice-cooling and kept still at 0° C. for 5 minutes to produce thromboxane A2 (TXA2). The reaction was stopped by addition of 500 μl of Tris buffer, and 50 μl of the resultant solution was subjected to radioimmunoassay of thromboxane B2 (TXB2), a stable metabolite of TXA2 [Shibouta et al. Biochem. Pharmacol. 28 3601, 1979]. The rate of inhibition (%) of TXA2 synthetase was determined from the difference in TXB2 productivity between the untreated group and the treated group.
as §1, with “60 μl of” for “60μof”, “of” for “cf”

The next test deals with T2, 5-lipoxygenase (Rattus norvegicus, UniProt P12527).
T2 construct: endogenous in cells; host or cells: RBL-1 cells (rat basophilic leukemia)
T2 sequence (P12527 1-673): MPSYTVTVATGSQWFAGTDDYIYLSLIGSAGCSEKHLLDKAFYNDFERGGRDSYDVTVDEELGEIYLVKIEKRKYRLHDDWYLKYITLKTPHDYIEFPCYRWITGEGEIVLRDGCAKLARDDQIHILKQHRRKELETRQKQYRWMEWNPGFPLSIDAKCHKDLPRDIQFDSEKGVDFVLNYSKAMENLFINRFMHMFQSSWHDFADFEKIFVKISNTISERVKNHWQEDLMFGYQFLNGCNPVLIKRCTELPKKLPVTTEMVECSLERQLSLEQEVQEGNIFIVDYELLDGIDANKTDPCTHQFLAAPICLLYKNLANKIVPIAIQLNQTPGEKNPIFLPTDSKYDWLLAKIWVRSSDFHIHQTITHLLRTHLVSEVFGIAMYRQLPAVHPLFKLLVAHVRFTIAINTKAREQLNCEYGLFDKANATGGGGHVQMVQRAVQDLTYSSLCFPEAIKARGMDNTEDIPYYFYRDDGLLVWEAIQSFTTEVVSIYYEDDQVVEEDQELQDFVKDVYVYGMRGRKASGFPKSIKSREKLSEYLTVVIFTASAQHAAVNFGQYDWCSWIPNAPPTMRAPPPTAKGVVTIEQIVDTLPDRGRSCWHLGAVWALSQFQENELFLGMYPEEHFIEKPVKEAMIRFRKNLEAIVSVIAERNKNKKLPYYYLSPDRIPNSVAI
Description: Inhibition of 5-lipoxygenase (production of 5-HETE in RBL-1 cells). The class given is cell-based, rat (RBL-1, rat basophilic leukemia cells). The conditions noted are these: for inhibition at 1 µM: 10^-6 M; for inhibition at 0.1 µM: 10^-7 M. On the procedure: Inhibition of 5-lipoxygenase
10^7 RBL-1 cells (rat basophilic leukemia cells) were suspended in 0.5 ml of MCM (mast cell medium ). To the suspension was subsequently added a solution consisting of 0.5 ml of MCM, 50 μg of arachidonic acid, 10 μg of A-23187 (calcium ionophore, Eli Lilly), and a solution of a quinone compound in ethanol at the final concentration of 1 μM, 0.1 μM, 0.01 μM or 0.001 μM of the test compound was added and allowed to react at 37° C. for 20 minutes. After the reaction, 4 ml of ethanol containing 1,4-dimethoxy-2-methyl-3-(3-methoxypropyl)naphthalene as an internal standard were added, mixed well by shaking, and kept at room temperature for 10 minutes. Then the mixture was centrifuged for 10 minutes (2000 rpm), and the supernatant was separated. The supernatant was concentrated to dryness under reduced pressure. To the concentrate, 0.5 ml of 60% aqueous methanol was added. One hundred μl of this solution was subjected to high performance liquid chromatography for quantitative analysis of 5-HETE (5-hydroxyeicosatetraenoic acid). The amount of 5-HETE was analyzed by measurement of the absorbance at […] with a UV absorption monitor.
Inhibitory effect (IE) of production of 5-HETE is expressed by (1-b/a)×100, wherein a is the peak height or the area corrected with the peak due to the internal standard in the absence of the quinone compound, and b is the peak hight or peak area corrected with the peak due to the internal standard in the presence of the quinone compound.

The test system of test [2] is lipid peroxide in rat brain homogenate. Put plainly: Inhibition of production of lipid peroxide in rat brain homogenate. The class given is biochemical, rat (Sprague-Dawley). On the procedure: Procedure: Sprague-Dawley rats (male, 9-15 weeks old) anesthetized with pentobarbital (50 mg/kg, intraperitoneal administration) were venesected and the brain tissue was resected. The tissue was homogenized in phosphate buffer (pH 7.4), and used as a 5% homogenate (on weight basis). The brain homogenate was allowed to react at 37° C. for 1 hour, and the amount of lipid peroxide produced was determined with the thiobarbituric acid method according to the method of Okawa et al. (Analytical Biochem 95 551, 1979). The drug was added to the 5% homogenate before the reaction at 37° C. for 1 hour so that the final concentration might be 5×10^-7 or 10^-6 M. Inhibition of production of lipid peroxide was expressed as the rate of inhibition in % of the amount produced in the solvent(DMSO)-treated group.

Results on two molecules are retold here after patent publication US4985447A, “Certain benzoquinones, naphthoquinones and derivatives thereof which exhibit thromboxane A2 synthetase inhibition or receptor antagonism and the like” (Takeda Chemical Industries, Ltd., priority 1986, dated 1991).

Usually inhibition stands for the drop in the measured response relative to a control, in per cent.

Turning to `CC(=O)OCCCCCC(C1=C(C)C(=O)C(C)=C(C)C1=O)c1cccnc1` (stereo not drawn) [compound 12], the inhibition at 1 µM is 56% in test [1] and 91% at 5-lipoxygenase. For the same molecule, the inhibition at 0.1 µM in test [1] was found to be 22%; against 5-lipoxygenase it was 67%. For the same molecule, the entries for the “Inhibition of production of lipid peroxide in rat brain homogenate” value in test [2] (5 × 10^-7 M) and in test [2] (10^-6 M) were 15% and 100%, respectively.
For `CCC(C1=C(C)C(=O)C(C)=C(C)C1=O)c1cccnc1` (stereo not drawn) [compound 15], the inhibition at 1 µM in test [1] was 76%; on 5-lipoxygenase it was 91%. In addition, the inhibition at 0.1 µM in test [1] was determined as 15%; at 5-lipoxygenase, 57%. For the same molecule, the “Inhibition of production of lipid peroxide in rat brain homogenate” value in test [2] (5 × 10^-7 M) came out at 52%; in test [2] (10^-6 M) it was 100%.
